Assay results: ChEMBL document CHEMBL3399941, “Discovery of heterocyclic sulfonamides as sphingosine 1-phosphate receptor 1 (S1P1) antagonists” (Bioorg Med Chem Lett, 2015)
Values after ≈ are worked out from the molar mass of the structure shown.

How the values were obtained:
[1] = biological target: Sphingosine 1-phosphate receptor 1 (Homo sapiens, UniProt P21453); assay: Antagonist activity against S1P1R in human U2OS cells expressing beta-arrestin/green fluorescent protein assessed as effect on S1P-induced beta-arrestin GFP relocalization incubated for 30 mins by Hoechst 33342 staining based receptor translocation assay; format: cell-based
Chain of Sphingosine 1-phosphate receptor 1 (P21453 whole entry): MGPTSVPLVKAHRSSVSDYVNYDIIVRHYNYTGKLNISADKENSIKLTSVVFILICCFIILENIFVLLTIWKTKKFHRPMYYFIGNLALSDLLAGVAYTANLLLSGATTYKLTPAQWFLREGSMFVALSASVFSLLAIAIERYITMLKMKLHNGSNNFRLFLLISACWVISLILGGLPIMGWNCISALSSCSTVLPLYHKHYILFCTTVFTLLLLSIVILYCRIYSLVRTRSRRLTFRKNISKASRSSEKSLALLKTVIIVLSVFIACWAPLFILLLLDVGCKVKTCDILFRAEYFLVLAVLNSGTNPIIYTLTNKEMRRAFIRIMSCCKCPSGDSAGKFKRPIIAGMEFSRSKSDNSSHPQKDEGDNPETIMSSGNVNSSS

[2] = Solubility in pH 7.4 buffer; format: physicochemical
Liver microsome = assay: (§1) Intrinsic clearance in human liver microsomes; format: ADME; settings: microsomes
[3] = Lipophilicity, log D of the compound; format: physicochemical; settings: octanol/water
[4] = Protein binding in human plasma assessed as unbound fraction; format: ADME, cell-free
[5] = Protein binding in rat plasma assessed as unbound fraction; format: ADME, cell-free
[6] = Intrinsic clearance in rat hepatocytes assessed per 10^6 cells; format: ADME, cell-based, Hepatocyte; settings: read-out: CLH
[7] = Apparent permeability from apical to basolateral side in human Caco2 cells; format: ADME, cell-based; settings: Caco-2
[8] = Apparent permeability from basolateral to apical side in human Caco2 cells; format: ADME, cell-based; settings: Caco-2
[9] = Volume of distribution at steady state in rat at 1 mg/kg, iv; format: ADME, organism-based; parameters: dose 1 mg/kg, route intravenous; settings: in vivo, read-out: Vdss
[10] = Half life in rat at 1 mg/kg, iv; format: ADME, organism-based; parameters: dose 1 mg/kg, route intravenous; settings: in vivo
Rattus norvegicus [11] = assay: AUC in rat at 3 mg/kg, po; format: ADME, organism-based, Plasma; parameters: dose 3 mg/kg, route oral; settings: in vivo
[12] = Cmax in rat at 3 mg/kg, po; format: ADME, organism-based; parameters: dose 3 mg/kg, route oral; settings: in vivo
Rattus norvegicus [13] = assay: Oral bioavailability in rat at 3 mg/kg; format: ADME, organism-based; settings: in vivo
[14] = as §1; format: ADME; settings: liver microsomes, read-out: CLH
[15] = Intrinsic clearance in human hepatocytes assessed per 10^6 cells; format: ADME, cell-based, Hepatocyte; settings: read-out: CLH

EC50 [1] | further results | Structure (SMILES)
250 nM | solubility [2]: > 600 µM; microsomal CLint (Liver microsome): 5.5 µL/min/mg; logD [3]: 1.4; fraction unbound [4]: 0.34; fraction unbound [5]: 0.5; hepatocyte CLint [6]: 10.2 µL/min/1e6 cells; Papp A→B [7]: 11.1 ×10⁻⁶ cm/s; Papp B→A [8]: 22.5 ×10⁻⁶ cm/s; Vd [9]: 0.7 L/kg; half-life [10]: 1.4 h; AUC (Rattus norvegicus [11]): 2.7 µM·h; Cmax [12]: 1600 nM; F (Rattus norvegicus [13]): 11% | CCc1nnc([C@@H](C)NS(=O)(=O)c2ccc(Cl)cc2)n1CC
> 33000 nM |  | CCc1nnc([C@H](C)NS(=O)(=O)c2ccc(Cl)cc2)n1CC
1030 nM |  | C=CCSc1nnc(C(Cc2ccccc2)NS(=O)(=O)c2ccc(Cl)cc2)n1C (racemic)
22100 nM |  | Cn1cnnc1C(Cc1ccccc1)NS(=O)(=O)c1ccc(Cl)cc1 (racemic)
1830 nM |  | Cc1nnc(C(Cc2ccccc2)NS(=O)(=O)c2ccc(Cl)cc2)n1C (racemic)
340 nM |  | CCc1nnc(C(Cc2ccccc2)NS(=O)(=O)c2ccc(Cl)cc2)n1C (racemic)
3230 nM |  | CCCCc1nnc(C(Cc2ccccc2)NS(=O)(=O)c2ccc(Cl)cc2)n1C (racemic)
3170 nM |  | Cn1c(C(Cc2ccccc2)NS(=O)(=O)c2ccc(Cl)cc2)nnc1C(F)(F)F (racemic)
460 nM |  | CCn1c(C)nnc1C(Cc1ccccc1)NS(=O)(=O)c1ccc(Cl)cc1 (racemic)
2690 nM |  | CCCn1c(C)nnc1C(Cc1ccccc1)NS(=O)(=O)c1ccc(Cl)cc1 (racemic)
6340 nM |  | Cc1nnc(C(Cc2ccccc2)NS(=O)(=O)c2ccc(Cl)cc2)n1C(C)C (racemic)
> 100000 nM |  | Cc1nnc(C(Cc2ccccc2)NS(=O)(=O)c2ccc(Cl)cc2)n1Cc1ccccc1 (racemic)
220 nM |  | CCc1nnc(C(Cc2ccccc2)NS(=O)(=O)c2ccc(Cl)cc2)n1CC (racemic)
490 nM |  | CCn1c(C)nnc1C(Cc1ccc(F)cc1)NS(=O)(=O)c1ccc(Cl)cc1 (racemic)
2370 nM |  | CCn1c(C)nnc1C(Cc1cccnc1)NS(=O)(=O)c1ccc(Cl)cc1 (racemic)
2250 nM |  | C=CCC(NS(=O)(=O)c1ccc(Cl)cc1)c1nnc(C)n1CC (racemic)
6190 nM |  | CCCC(NS(=O)(=O)c1ccc(Cl)cc1)c1nnc(C)n1CC (racemic)
7690 nM |  | CCn1c(C)nnc1C(CC1CC1)NS(=O)(=O)c1ccc(Cl)cc1 (racemic)
670 nM | solubility [2]: 380 µM (≈ 125 µg/mL); microsomal CLint [14]: < 5 µL/min/mg; hepatocyte CLint [15]: < 2 µL/min/1e6 cells | CCn1c(C)nnc1C(C)NS(=O)(=O)c1ccc(Cl)cc1 (racemic)
15200 nM | microsomal CLint [14]: > 100 µL/min/mg | CCc1nnc(C(Cc2ccccc2)NS(=O)(=O)c2ccc(Cl)cc2)o1 (racemic)
> 100000 nM | microsomal CLint [14]: > 100 µL/min/mg | Cc1ncc(C(Cc2ccccc2)NS(=O)(=O)c2ccc(Cl)cc2)n1C (racemic)
1610 nM | microsomal CLint [14]: > 100 µL/min/mg | Cc1cnc(C(Cc2ccccc2)NS(=O)(=O)c2ccc(Cl)cc2)n1C (racemic)
3030 nM | microsomal CLint [14]: > 100 µL/min/mg | CCc1onc(C(C)NS(=O)(=O)c2ccc(Cl)cc2)c1CC (racemic)
720 nM | microsomal CLint [14]: > 100 µL/min/mg | CCc1snc(C(C)NS(=O)(=O)c2ccc(Cl)cc2)c1CC (racemic)
310 nM | microsomal CLint [14]: > 100 µL/min/mg | CCc1[nH]nc(C(C)NS(=O)(=O)c2ccc(Cl)cc2)c1CC (racemic)
410 nM |  | CCc1nnc(C(C)NS(=O)(=O)c2ccc(Cl)cc2)n1CC (racemic)
